Source: paper PMC7048242 (Cancer letters, 2018)

Legend:
K-Luc cells = conditions: K-Luc cell line
S100B [1] = test: S100B expression in GL261 cells; assay type: cell-based, mouse
in vivo = conditions: C57BL/6, mouse, po, 30 mg/kg
[2] = tested on: intracranial GL261 gliomas
S100B promoter = test: HTS cell-based S100B promoter-driven luciferase reporter assay; design: species or system human
[3] = tested on: tumor-associated leukocytes; conditions: 30 mg/kg/14 days, LPS 0.5 μg/ml 24 h, q-PCR
[4] = tested on: tumor-associated myeloid-derived cells
U251 glioma cells = conditions: 5 μM, U251 (not shown)
CCL2 = conditions: GL261 cells, 48 h incubation
S100B [5] = conditions: cited from earlier work
[6] = contralateral brain tissue without tumor

SMILES: CNCC[C@H](Oc1cccc2ccccc12)c1cccs1 [Duloxetine]
- Cell proliferation in vitro (K-Luc cells): modest inhibitory effect
- S100B expression (S100B [1]; GL261 cells, low concentrations, 24 h (qPCR), 48 h (Western, ELISA, immunostains)): inhibited
- concentration at 0.5 h (in vivo; GL261 tumor): 48.8 µM
- concentration at 2 h (in vivo; GL261 tumor): 70.8 µM
- concentration at 6 h (in vivo; GL261 tumor): 24.9 µM
- concentration at 12 h (in vivo; GL261 tumor): 10 µM
- concentration at 0.5 h (in vivo; [6]): 36.3 µM
- concentration at 2 h (in vivo; [6]): 65.9 µM
- concentration at 6 h (in vivo; [6]): 24.2 µM
- concentration at 12 h (in vivo; [6]): 9.64 µM
- concentration at 0.5 h (in vivo; plasma): 3.04 µM
- concentration at 2 h (in vivo; plasma): 2.12 µM
- concentration at 6 h (in vivo; plasma): 1.28 µM
- concentration at 12 h (in vivo; plasma): 0.39 µM
- Tumor growth ([2]; i.c. GL261, 14 days treatment started a day after implantation): significantly decreased
- Animal survival ([2]; i.c. GL261, high doses (30 mg/kg/14 days), started a day after implantation): improved
- S100B promoter activity (S100B promoter; 5 μM, luciferase measured 24 h after treatment): inhibited
- IC50 (S100B promoter; Homo sapiens, U-251): 10 µM
- Il-1β expression by tumor-associated leukocytes [3]: higher levels
- Il-6, Il-10 and Tgf-β expression by tumor-associated leukocytes [3]: lower levels
- Proportion of macrophages, monocytic myeloid-derived cells and neutrophils in GL261 gliomas ([4]; 30 mg/kg x 14 days, FACS): decreased
- Pathway Scores for innate and adaptive immunity processes in tumors ([4]; Nanostring, GL261 tumors (not in TME)): significantly higher
- Overall tumor levels of S100B and RAGE (K-Luc gliomas; K-Luc tumor-bearing mice, daily for 14 days): did not significantly change
- Growth of K-Luc tumors (K-Luc gliomas; two-week treatment): did not significantly inhibit
- Cell proliferation (GL261-Luc cells; GL261, Dul concentration < 10 μM): not significantly inhibited
- LD50 (GL261-Luc cells; GL261-Luc cells, 24 h incubation): 25.1 µM
- Cytotoxicity (U251 glioma cells): without causing cytotoxicity
- CCL2 expression (CCL2): inhibited
- CCL2 expression in GL261 gliomas (immunohistochemistry) (S100B, RAGE, CCL2; 30 mg/kg, two weeks): decrease
- Total brain S100B, RAGE or CCL2 protein levels (S100B, RAGE, CCL2; GL261 tumor-bearing mice, 5 or 30 mg/kg/14 days, tumor and peritumoral tissue): did not significantly inhibit
- Serum S100B and soluble RAGE (sRAGE) levels (S100B, RAGE, CCL2; GL261 tumor-bearing mice, two-week treatment): Nor mouse serum S100B and soluble RAGE (sRAGE) levels changed
- S100B and RAGE in i.c. GL261 tumors (histochemistry) (S100B, RAGE, CCL2; two-week treatment, tumor cells): effectively inhibited

SMILES: NC[C@H](O)c1ccc(O)c(O)c1 [NE, norepinephrine]
- S100B expression in GL261 (S100B [1]; NE added every 3 h, 24 h, Western analysis): induced
- S100B promoter activity in U251-Luc (S100B promoter; NE added every 3 h, luciferase measured in 12 h): induced

SMILES: CNCCC(Oc1ccc(C(F)(F)F)cc1)c1ccccc1 (centres unmarked) [fluoxetine]
- S100B expression in rat astrocytes in vivo (S100B [5]): stimulated
